Measured values from the OligoGym collection.
Where “and” joins values, the source holds several entries; their conditions need not be identical. Equal values may be shown once. After the bases stand the sugars from the 5' end (letter, count) and the backbone: PS all phosphorothioate, else s phosphorothioate and o phosphodiester by linkage. Methylation of C is not given here. e = 2'-O-(2-methoxyethyl) (MOE); k = constrained ethyl (cEt); d = 2'-deoxy (DNA)

target: IRF4; settings: ASO, H929, 0.04 µM

Row | Sequence | target mRNA inhibition [%]
1 | CACATCAATGTTTTAG (sugars k3 d10 k3, PS) | 14

same assay, conditions: ASO, KMS11, 0.2 µM

Row | Sequence | target mRNA inhibition
2 | CACATCAATGTTTTAG (sugars k3 d10 k3, PS) | 61% and 78%

same assay, conditions: ASO, MM.1R, 0.0625 µM

Row | Sequence | target mRNA inhibition [%]
3 | AGCAGTGATGTCAGGT (sugars kkdddddddddekeke, PS) | 32
4 | CACATCAATGTTTTAG (sugars k3 d10 k3, PS) | 48

same assay, conditions: ASO, MM.1R, 0.25 µM

Row | Sequence | target mRNA inhibition [%]
5 | AGCAGTGATGTCAGGT (sugars kkdddddddddekeke, PS) | 54
6 | CACATCAATGTTTTAG (sugars k3 d10 k3, PS) | 62

same assay, conditions: ASO, MM.1R, 1 µM

Row | Sequence | target mRNA inhibition
7 | GTTGGCTGGTCTTTGT (sugars k2 d9 e3 k2, PS) | 24%
8 | ATGGAACAGTAACTTG (sugars k3 d10 k3, PS) | 3%
9 | GAGCATCACTATTAAG (sugars k3 d10 k3, PS) | 14%
10 | TGTGTATTACTCTTAG (sugars kkdddddddddekeke, PS) | 54% and 66%
11 | TTGATGTGATAGCTGA (sugars kkdddddddddkekek, PS) | 24%
12 | CTTGATAAAGGCTGAA (sugars e1 k2 d9 k2 e2, PS) | 17%
13 | ACCCACGAAGATTCAA (sugars k3 d10 k3, PS) | -17%
14 | GAGAGTAAACTTGGCT (sugars k3 d10 k3, PS) | 12%
15 | AAGCAGTGATGTCAGG (sugars kkdddddddddkekek, PS) | 43% and 44%
16 | TTACCGCATTGCTAGA (sugars k3 d10 k3, PS) | 13% and 26%
17 | CCTGATGCCTCCGCCG (sugars k3 d10 k3, PS) | 6%
18 | AGGTAAGATCTCCATG (sugars k3 d10 k3, PS) | 32%
19 | CAAGCAGTGATGTCAG (sugars kkdddddddddkekek, PS) | 51% and 52%
20 | AACGACTCCACAGAGC (sugars k3 d10 k3, PS) | 4%
21 | CTTGGCTGTGGGATGC (sugars k3 d10 k3, PS) | 21%
22 | AATTCCATAGAGCCAG (sugars k3 d10 k3, PS) | 18%
23 | CGCCAGCGGGTGAGCA (sugars k3 d10 k3, PS) | 19%
24 | TTATGCCATGGACAAG (sugars k3 d10 k3, PS) | 19%
25 | TGATGTGATAGCTGAG (sugars kkdddddddddekeke, PS) | 60%

Row | Sequence | target mRNA inhibition
26 | CCCTTGCTGCAAATCC (sugars k3 d10 k3, PS) | -4%
27 | GTCCACATACCTGAAA (sugars k3 d10 k3, PS) | 8%
28 | GACAGATGGCATGCGA (sugars k3 d10 k3, PS) | 16%
29 | TACTGTTACCGATGCT (sugars kkdddddddddkdkdk, PS) | 7% and 18%
30 | TAACCGGTAGAGTGAG (sugars k3 d10 k3, PS) | 27%
31 | AGCAGTGATGTCAGGT (sugars kkdddddddddekeke, PS) | 72% and 70% and 69%
32 | TCCGGGTGTGGCTGAT (sugars k3 d10 k3, PS) | 26%
33 | GGCCACATTAGCAATT (sugars k3 d10 k3, PS) | 0%
34 | AGTATGAGAAACGGCC (sugars kkdddddddddekeke, PS) | 11%
35 | AGCGACCCAAATGTGG (sugars k3 d10 k3, PS) | -2%
36 | GACCATCTGATCCGGA (sugars k3 d10 k3, PS) | 2%
37 | CACATCAATGTTTTAG (sugars k3 d10 k3, PS) | 66% and 75% and 72%
38 | GAAACGAGTTGACACA (sugars k3 d10 k3, PS) | 0%
39 | AGTATGAGAAACGGCC (sugars kddddddddddkekek, PS) | 10%
40 | CGCTTGTGGATATACA (sugars k3 d10 k3, PS) | 0%
41 | CAGAGCTCCGGAGTCA (sugars k3 d10 k3, PS) | -6%
42 | CGCCCATGAGTTGAAA (sugars k3 d10 k3, PS) | 13%
43 | AGTGACTTGCATCCAT (sugars kdddddddddkekeke, PS) | 8%

same assay, conditions: ASO, MM.1R, 4 µM

Row | Sequence | target mRNA inhibition [%]
44 | AGCAGTGATGTCAGGT (sugars kkdddddddddekeke, PS) | 86
45 | CACATCAATGTTTTAG (sugars k3 d10 k3, PS) | 89

same assay, conditions: ASO, SK-MEL-28, 0.185 µM

Row | Sequence | target mRNA inhibition [%]
46 | GGGTACATGGCAGTGG (sugars k3 d10 k3, PS) | 19

same assay, conditions: ASO, SK-MEL-28, 4 µM

Row | Sequence | target mRNA inhibition [%]
47 | AATTTCCATTGGAGGA (sugars k3 d10 k3, PS) | 33
48 | TATAATTGGCACGAGG (sugars k3 d10 k3, PS) | 41
49 | AAGAAGCAAGTCGGTC (sugars k3 d10 k3, PS) | 55
50 | CTTCATTTACTGTTAC (sugars k3 d10 k3, PS) | 31
51 | CCGTGGTGAGCAAACG (sugars k3 d10 k3, PS) | 32
52 | GACCACGCCCCTCTCC (sugars k3 d10 k3, PS) | 55
53 | GACCAGCTTTTTCAAA (sugars k3 d10 k3, PS) | 38
54 | GATAACGAGGTGCCTT (sugars k3 d10 k3, PS) | 18
55 | GTCTTAAGGGTTCAAG (sugars k3 d10 k3, PS) | 49
56 | TACGAGAGGGTCTGAT (sugars k3 d10 k3, PS) | 0
57 | TGTAATGTAGGGATAC (sugars k3 d10 k3, PS) | 53
58 | CAGTCTCAAAAACGGG (sugars k3 d10 k3, PS) | 51
59 | CGGAACTTTCCTTTAA (sugars k3 d10 k3, PS) | 37
60 | CACTCATCTTGACATT (sugars k3 d10 k3, PS) | 36
61 | TCCACTTTATCAAGAC (sugars k3 d10 k3, PS) | 65
62 | ATCCAGAGGACCACGC (sugars k3 d10 k3, PS) | 19
63 | GGAAATTCAAGCTTTC (sugars k3 d10 k3, PS) | 64
64 | TTATATATGACGACTT (sugars k3 d10 k3, PS) | 35
65 | AACCATGTTCCTGAAG (sugars k3 d10 k3, PS) | 41
66 | TCCATATGACCCAGTG (sugars k3 d10 k3, PS) | 66
67 | AGTCAGTGTCAATACT (sugars k3 d10 k3, PS) | 47
68 | GAGCCTGGGACTCAGG (sugars k4 d8 k4, PS) | 19
69 | ACGCAAGGCTCGGAGC (sugars k3 d10 k3, PS) | 21

Row | Sequence | target mRNA inhibition [%]
70 | CTTAGGAACGAAGAGC (sugars k3 d10 k3, PS) | 7
71 | ATAGTTGTCTGGCTAG (sugars k3 d10 k3, PS) | 52
72 | TGGAGGTCTTTGGGAT (sugars k3 d10 k3, PS) | 58
73 | CCGCTGAGAGCCGAGG (sugars k3 d10 k3, PS) | -4
74 | GAAGAATAAACACCCC (sugars k3 d10 k3, PS) | 52
75 | GGCTGAACTGTGTAAT (sugars k3 d10 k3, PS) | 72
76 | GAGCGGCCGTGGTGAG (sugars k3 d10 k3, PS) | 41
77 | GCAAGCTGAATGCTCT (sugars k3 d10 k3, PS) | 53
78 | CTGGGCCTTGCCAGTG (sugars k3 d10 k3, PS) | -14
79 | AAATATCGCCCATGAG (sugars k3 d10 k3, PS) | 39
80 | AGGTAGTAGACCACAG (sugars k3 d10 k3, PS) | 59
81 | GTAGAAGCCCACAAGA (sugars k3 d10 k3, PS) | -4
82 | GAATTTCCATTGGAGG (sugars k3 d10 k3, PS) | 43
83 | GCAGTCAATTGGACGC (sugars k3 d10 k3, PS) | 77
84 | GACAGAGAGTCCGACG (sugars k3 d10 k3, PS) | -1
85 | CTACAAAGAGCACTGC (sugars k3 d10 k3, PS) | 53
86 | GAGCAGAACGAGGTAA (sugars k3 d10 k3, PS) | 55
87 | CTGTATAGTTCTCAAC (sugars k3 d10 k3, PS) | 52
88 | GATTGATGTGATAGCT (sugars k3 d10 k3, PS) | 56
89 | ATCAGATGATGTCTAG (sugars k3 d10 k3, PS) | -3
90 | CTTGCCAGTGGTGGCC (sugars k3 d10 k3, PS) | 16
91 | AAGAAACGAGTTGACA (sugars k3 d10 k3, PS) | 22
92 | AGCAAGTGGAGGTCTT (sugars k3 d10 k3, PS) | 63

Row | Sequence | target mRNA inhibition [%]
93 | AGTGTAACTGAGGACT (sugars k3 d10 k3, PS) | -7
94 | TTCGAGGTGATTCTCG (sugars k3 d10 k3, PS) | 5
95 | CATGAGGGTGACACAC (sugars k3 d10 k3, PS) | 47
96 | TTACACTGGATCTGAA (sugars k3 d10 k3, PS) | 38
97 | TGCAAGTATGTAGCAA (sugars k3 d10 k3, PS) | 3
98 | CAAAAACTTGGGTCAC (sugars k3 d10 k3, PS) | 20
99 | GCGCCCAATCACCTTC (sugars k3 d10 k3, PS) | 3
100 | GCAAGATGACTCCATG (sugars k3 d10 k3, PS) | 63
101 | CTATGCTAGAGAACAT (sugars k3 d10 k3, PS) | 23
102 | AGCACTGGCATCGAGA (sugars k3 d10 k3, PS) | 59
103 | CATCACTCTAGTCAGT (sugars k3 d10 k3, PS) | 59
104 | TAATACCTACCTGCCC (sugars k3 d10 k3, PS) | 4
105 | TGCCAATCAGATGTCA (sugars k3 d10 k3, PS) | 22
106 | GAGCCGCCACATCAGC (sugars k3 d10 k3, PS) | 23
107 | GGTGAAACTGAGAGTG (sugars k3 d10 k3, PS) | 8
108 | TAGGATAATATACCCC (sugars k3 d10 k3, PS) | 74
109 | TAGTAGACCACAGTGA (sugars k3 d10 k3, PS) | 9
110 | CTCTATAGTGTTCCAG (sugars k3 d10 k3, PS) | 66
111 | GTCTACTTGAGTCTGT (sugars k3 d10 k3, PS) | 51
112 | GGGTACATGGCAGTGG (sugars k3 d10 k3, PS) | 68
113 | ACAAAAGGTTCCCGCG (sugars k3 d10 k3, PS) | 3
114 | GAATAGAGGAATGGCG (sugars k3 d10 k3, PS) | 39
115 | GGCGGAGCATCAACAA (sugars k3 d10 k3, PS) | 60

same assay, conditions: ASO, SK-MEL-28, 5 µM

Row | Sequence | target mRNA inhibition [%]
116 | GGGTACATGGCAGTGG (sugars k3 d10 k3, PS) | 76

same assay, conditions: ASO, SK-MEL-28, 15 µM

Row | Sequence | target mRNA inhibition [%]
117 | GGGTACATGGCAGTGG (sugars k3 d10 k3, PS) | 92
